Source: patent US12403114B2, “Cannabinoid acid ester compositions and uses thereof” (EPM (IP), INC., priority 2019, dated 2025)
“Also recorded” adds a separate entry of the source.

Columns and labels:
[1] = system: partial meniscectomy/ACL transection rat model of surgical induced osteoarthritis and pain induced incapacitance; test: Weight bearing (incapacitance tester) in rat partial meniscectomy/ACL transection model, Example 5; format: in vivo
Procedure: Rats were allowed to acclimatize for 1 week, followed by assessment of their weight bearing preference using an incapacitance meter. Unilateral medical meniscectomy and anterior cruciate ligament ligation (MMX/ACLT) surgery was performed on the right knee of a subject rat. Weight bearing preference was tested before and after surgery. After 2 weeks, treatments with both intra-articular (1) and. intra-peritoneal (6) administrations of EPM-301 began in the EPM-301 group. Weight bearing preference was then assessed 4 and 7 days after the start of therapy.
Wistar Rats (HsdHan female rats 225-249 grams) were acquired from Envigo. The rats were evaluated using an incapacitance tester. They were tested pre-operation, one-week post-operation, two weeks post-operation, prior to injection, 4 and 7 days post injections.
EPM-301 was dissolved in a solution mixture of 1:1:18 EtOH:cremophor:seline to a final concentration of 3.5 mg/mL.
Intra-articular (i.a.) injection was carried out with 100 uL and intra-peritoneal (i.p.) injections were carried out with 150 uL. All were injected i.a. in the first day. EPM-301 was injected via i.p. administration on the first day, and for 5 additional days everyday via i.p. administration.
Student's t-test was performed at the last follow-up time to determine effect of the therapy as primary endpoint. The level of significance was 0.05 alpha. ANOVA was used to compare all time points, a post-hob analysis with the Scheffe all comparisons method was performed. Calculations were performed using the Analyze-it Excel add-on function.
The percentage weight bearing was calculated as the amount of weight born (in grams) on the right hind limb divided by the amount of weight born on the left hind limb. The ratio was expressed as percentage weight bearing. There were 6 animals in the EPM-301 treated group and 4 animals in the control group.

[2] = system: Human hepatoma HepG2 cells; test: Fat accumulation in hepatocytes (Nile-Red); format: cell-based; conditions: 0.3 mM oleic:palmitic acids, 24 hr; EPM-301 effect at high (50 and 10 μM) and low (0.025 and 0.001 μM) concentrations, bell-shaped (FIG. 37, 38)
Procedure: (§1) An in vitro model of fat accumulation in hepatocytes was used to test whether compounds EPM-301 and EPM-302 have the ability to reduce lipid accumulation in hepatocytes Human hepatoma HepG2 cells were maintained at 37° C. in 5% CO2 in DMEM medium supplemented with 10% FCS, 2 mM 1-glutamine, 1 mM sodium pyruvate, 100 U/mL penicillin and […] streptomycin. Free fatty acids (2:1, molar ratio, oleic and palmitic acids) were mixed with bovine serum albumin (BSA). Cells were incubated with fatty acid-BSA complex in FCS-free culture medium at 0.3 mM final concentration of fatty acid and 1% of BSA. Control cell cultures were incubated with medium containing the vehicle. Compounds were tested in a range of concentrations in the presence of fatty acids. After 24 hr of incubation with the compounds, the cells were washed, incubated with 1 μg/mL mixture of Nile-Red/Hoechst solution for 15 mins at 37° C. protected from light. Fluorescence was measured by the Cytation-3 plate reader at ex:488 nm/em:550 nm and ex:350 nm/em:461 nm for Nile-Red and Hoechst, respectively. Results were normalized to total protein levels of each well, and presented as a change in the accumulation of lipids in comparison with Vehicle-treated group.
[…] EPM-301 at 50 μM was used as positive control.
Values are expressed as mean±SEM. […]

LLCPK1 cells = test: Cellular lipid accumulation test in renal proximal tubule cells; format: cell-based; conditions: 3.125-25 μM; cells exposed to a mixture of oleate and palmitate, 24 hr (FIG. 31)
Procedure: as §1, with “To test whether CBDA-ME has the ability to reduce lipid accumulation in renal proximal tubule cells, we have utilized an” for “An”, “LLCPK1 cells. Briefly, LLCPK1” for “hepatocytes was used to test whether compounds EPM-301 and EPM-302 have the ability to reduce lipid accumulation in hepatocytes Human hepatoma HepG2”, “concentrations (as detailed” for “concentrations”, “results section) in the presence/absence” for “presence”, “nm/em:550” for “nm/em:550 nm and ex:350 nm/em:461 nm”

SMILES: C=C(C)[C@@H]1CCC(C)=CC1c1c(O)cc(CCCCC)c(C(=O)OC)c1O (some centres unmarked) [EPM-301, cannabidiolic acid methyl ester]
- Rt limb weight bearing ([1]; following injection, 3.5 mg/mL, 100 uL i.a. once plus 150 uL i.p. on 6 days, control group 59.0%): 106.7%
- weight bearing, average value ([1]; immediately prior to injection, two weeks following model induction (baseline before treatment)): 42.25%
- Rt/Lt weight bearing, average value ([1]; prior to operation (baseline of the group, before treatment)): 139.6%
- amount of fat accumulation in hepatocytes [2]: significantly reduce; also recorded: ineffective
- fat accumulation in kidney cells (lipotoxicity) (LLCPK1 cells): prevent
